Consider 18 compounds from patent publication US20060241114A1, “Derivatives of azasugars as anticancer agents” (priority 2003, published 2006).

One assay deals with LOX (melanoma). In words: In vitro growth inhibition screen (sulphorhodamine B), LOX. It is filed as cell-based, human. The conditions noted are these: LOX cells, incubated for 48 hours, sulphorhodamine B dye; read-out: GI50 (concentration which inhibits the cell growth by 50%), LOX Melanoma. In a few lines:
(§1)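 GI50 (50% growth inhibition) from sulphorhodamine B staining of TCA-fixed cells, OD 490. Compounds at ten-fold dilutions from ≧100 μM down to 10 nM were added a day after plating and left 48 h; culture in RPMI 1640 with 10% FCS, 37 °C, 5% CO2.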

Assay [1] deals with MCF7ADR (adriamycin resistant breast adenocarcinoma). In words: In vitro growth inhibition screen (sulphorhodamine B), MCF7ADR. It is filed as cell-based, human. As to conditions: MCF7ADR cells, incubated for 48 hours, sulphorhodamine B dye; read-out: GI50 (concentration which inhibits the cell growth by 50%), MCF7ADR Adriamycin Resistant Breast adenocarcinoma. Put shortly: as §1
A general note: The SRB assay estimates cell density from bound dye.

The test system of assay [2] is DU145 (prostate carcinoma). In words: In vitro growth inhibition screen (sulphorhodamine B), DU145. It is filed as cell-based, human. As to conditions: DU145 cells, incubated for 48 hours, sulphorhodamine B dye; read-out: GI50 (concentration which inhibits the cell growth by 50%), DU145 Prostate carcinoma. In a few lines:
as §1

Assay [3] relates to HT29 (colorectal adenocarcinoma). The assay can be described thus: In vitro growth inhibition screen (sulphorhodamine B), HT29. It is filed as cell-based, human. The conditions noted are these: HT29 cells, incubated for 48 hours, sulphorhodamine B dye; read-out: GI50 (concentration which inhibits the cell growth by 50%), HT29 Colorectal adenocarcinoma. In a few lines:
as §1

Assay [4] concerns U251 (human glioblastoma). In words: In vitro growth inhibition screen (sulphorhodamine B), U251. As to conditions: U251 cells, incubated for 48 hours, sulphorhodamine B dye; read-out: GI50 (concentration which inhibits the cell growth by 50%), U251 Human glioblastoma astrocytoma. It is filed as cell-based. In a few lines: as §1
In assay [5] the test system is MCF7 (breast adenocarcinoma). The assay can be described thus: In vitro growth inhibition screen (sulphorhodamine B), MCF7. The conditions noted are these: MCF7 cells, incubated for 48 hours, sulphorhodamine B dye; read-out: GI50 (concentration which inhibits the cell growth by 50%), MCF7 Breast adenocarcinoma. It is filed as cell-based, human. Put shortly:
as §1

With `CCCN1C(=O)[C@H](OCc2ccccc2)[C@@H](OCc2ccccc2)[C@H](OCc2ccccc2)[C@H]1CNC(=O)Cn1ncn(-c2ccc(N3CCN(c4ccc(Cl)cc4)CC3)cc2)c1=O` [Compound No. 60, 2,3,4-Tri-O-benzyl-6-N-{2-[(4-(4-(chlorophenyl)-piperazin-1-yl)-phenyl)-3(2H,4H)-1,2,4-triazol-3-onyl]acetyl}-H-propyl-D-gluco-δ-lactam], the GI50 in the assay on LOX (melanoma) stood at 158 µM; in assay [1] it was 281 µM; in assay [2], 108 µM; in assay [3], 258 µM; in assay [4], 190 µM; in assay [5], 101 µM.
As to `CCCN1C(=O)[C@H](OCc2ccccc2)[C@@H](OCc2ccccc2)[C@H](OCc2ccccc2)[C@H]1CNC(=O)Oc1ccccc1` [Compound No. 74, 2,3,4-Tri-O-benzyl-6-N-[phenyl carbamate]-N-propyl-D-gluco-δ-lactam], the GI50 came out at 51.8 µM with LOX (melanoma); 26.1 µM in assay [1]; 90.9 µM in assay [2]; 10.7 µM in assay [3]; 34.2 µM in assay [4]; 25.4 µM in assay [5].
Regarding `CCCN1C(=O)[C@H](OC(C)=O)[C@@H](OC(C)=O)[C@H](OC(C)=O)[C@H]1CNC(=O)Nc1ccccc1` [Compound No. 33, 2,3,4-Tri-O-acetyl-6-N-{[phenyl]aminocarbonylamino}-N-propyl-D-gluco-δ-lactam], the GI50 in the assay on LOX (melanoma) was 25.1 µM; in assay [1], 56.8 µM; in assay [2] it was 52.7 µM; in assay [3], 24.1 µM; in assay [4] it was 47.1 µM; in assay [5], 34.1 µM.
Regarding `CCCN1C(=O)[C@H](O)[C@@H](O)[C@H](O)[C@H]1CN1C(=O)CCCC1=O` [Compound No. 87, 6-(2,6-Diketopiperidino)-N-propyl-D-gluco-δ-lactam], the GI50 was found to be 244 µM in the assay on LOX (melanoma); 96.9 µM in assay [1]; 131 µM in assay [2]; 108 µM in assay [3]; 101 µM in assay [4]; 74.2 µM in assay [5].
`CCCN1C(=O)[C@H](OCc2ccccc2)[C@@H](OCc2ccccc2)[C@H](OCc2ccccc2)[C@H]1CNC(=O)NC12CC3CC(CC(C3)C1)C2` [Compound No. 23, 2,3,4-Tri-O-benzyl-6-N-{[1-adamantyl]aminocarbonylamino}-N-propyl-D-gluco-δ-lactam]: the GI50 stood at 35.7 µM with LOX (melanoma); 26 µM in assay [1]; 50 µM in assay [2]; 28.7 µM in assay [3]; 4.2 µM in assay [4]; 5.6 µM in assay [5].
Turning to `CCCN1C(=O)[C@H](OCc2ccccc2)[C@@H](OCc2ccccc2)[C@H](OCc2ccccc2)[C@H]1CNC(=O)CN1CCN(c2ncccn2)CC1` [Compound No. 54, 2,3,4-Tri-O-benzyl-6-N-{2-[4-(pyrimidyl)piperazinyl]acetyl}-N-propyl-D-gluco-δ-lactam], the GI50 worked out at 2.3 µM in the assay on LOX (melanoma); 6.6 µM in assay [1]; 5 µM in assay [2]; 3.6 µM in assay [3]; 3.2 µM in assay [4]; 4.1 µM in assay [5].
On to `C=CCN1C(=O)[C@H](OCc2ccccc2)[C@@H](OCc2ccccc2)[C@H](OCc2ccccc2)[C@H]1Cn1ccnn1` [Compound No. 69, N-Allyl-2,3,4-tri-O-benzyl-6-triazolyl-D-gluco-δ-lactam], for which the GI50 in the assay on LOX (melanoma) was found to be 47.4 µM; in assay [1], 39.4 µM; in assay [2], 51 µM; in assay [3], 31.6 µM; in assay [4], 37.9 µM; in assay [5], 47.8 µM.
Turning to `CCCN1C(=O)[C@H](OCc2ccccc2)[C@@H](OCc2ccccc2)[C@H](OCc2ccccc2)[C@H]1CNC(=O)c1cccs1` [Compound No. 46, 2,3,4-Tri-O-benzyl-N-propyl-6-{[2-thiophene]carboxamido}-D-gluco-δ-lactam], the GI50 worked out at 178 µM with LOX (melanoma); 83.4 µM in assay [1]; 83.8 µM in assay [2]; 3.3 µM in assay [3]; 105 µM in assay [4]; 18.4 µM in assay [5].
With `CCCN1C(=O)C(OCc2ccccc2)C(OCc2ccccc2)C(OCc2ccccc2)C1CNC(=O)Nc1ccc(OC)cc1` [Compound No. 4, 2,3,4-Tri-O-benzyl-6-N-{[p-methoxyphenyl]aminocarbonylamino}-N-propyl-D-gluco-δ-lactam], the GI50 amounted to 112 µM in the assay on LOX (melanoma); 115 µM in assay [1]; 116 µM in assay [2]; 49.4 µM in assay [3]; 16.8 µM in assay [4]; 13.6 µM in assay [5].
Regarding `CCCN1C(=O)[C@H](OCc2ccccc2)[C@@H](OCc2ccccc2)[C@H](OCc2ccccc2)[C@H]1CNC(=O)CCl` [Compound No. 52, 2,3,4-Tri-O-benzyl-6-N-{2-[chloro]-acetyl}-N-propyl-D-gluco-δ-lactam], the GI50 with LOX (melanoma) was determined as 0.9 µM; in assay [1], 0.8 µM; in assay [2] it was 7.2 µM; in assay [3], 6.8 µM; in assay [4] it was 2.9 µM; in assay [5], 6 µM.
In the case of `CCCN1C(=O)[C@H](O)[C@@H](O)[C@H](O)[C@H]1CNC(=O)Nc1ccccc1C(F)(F)F` [Compound No. 25, 6-N-{[2-Trifluoromethylphenyl]aminocarbonylamino}-N-propyl-D-gluco-δ-lactam], the GI50 with LOX (melanoma) worked out at 94.6 µM; in assay [1], 228 µM; in assay [2] it was 386 µM; in assay [3] it was 311 µM; in assay [4] it was 278 µM; in assay [5] it was 190 µM.
With `CCCN1C(=O)[C@H](O)[C@@H](O)[C@H](O)[C@H]1COC(=O)Nc1ccccc1` [Compound No. 43, N-Propyl-6-(phenylcarbamate)-N-propyl-D-gluco-δ-lactam], the GI50 in the assay on LOX (melanoma) worked out at 161 µM; in assay [1], 280 µM; in assay [2], 226 µM; in assay [3], 208 µM; in assay [4], 235 µM; in assay [5], 115 µM.
Take `CCCN1C(=O)C(O)C(O)C(O)C1CNC(=O)NC(C)C` [Compound No. 30, 6-N-{[Isopropyl]aminocarbonylamino}-N-propyl-D-gluco-δ-lactam]: the GI50 in the assay with LOX (melanoma) turned out to be 226 µM; in assay [1] it was 209 µM; in assay [2] it was 119 µM; in assay [3], 42.6 µM; in assay [4], 100 µM; in assay [5], 180 µM.
Take `CCCN1C(=O)[C@H](OCc2ccccc2)[C@@H](OCc2ccccc2)[C@H](OCc2ccccc2)[C@H]1CNC(=O)CN1CCN(c2ccc(Cl)cc2)CC1` [Compound No. 64, 2,3,4-Tri-O-benzyl-6-N-{2-[4-(4-chlorophenyl)piperazinyl]acetyl}-N-propyl-D-gluco-δ-lactam]: the GI50 in the assay with LOX (melanoma) turned out to be 6.3 µM; in assay [1] it was 4.3 µM; in assay [2], 12.5 µM; in assay [3], 8.1 µM; in assay [4], 3.7 µM; in assay [5], 1.5 µM.
In the case of `O[C@H]1[C@H](O)[C@@H](Cn2cncn2)NC[C@@H]1O` [Compound No. 72, 1,5-Dideoxy-1,5-imino-6-triazolyl-glucitol], the GI50 in the assay with LOX (melanoma) stood at 146 µM; in assay [1], 275 µM; in assay [2] it was 340 µM; in assay [3], 244 µM; in assay [4], 282 µM; in assay [5] it was 208 µM.
In the case of “2,3,4-Tri-O-benzyl-6-N-{[isopropyl]aminocarbonylamino}-1,5-dideoxy-1,5-imino-N-propyl glucitol [Compound No. 38]”, the GI50 with LOX (melanoma) was 281 µM; in assay [1], above 380 µM; in assay [2], 98.4 µM; in assay [3] it was 35 µM; in assay [4], above 380 µM; in assay [5], above 380 µM.
As for `CCCN1C(=O)C(OCc2ccccc2)C(OCc2ccccc2)C(OCc2ccccc2)C1CNC(=O)Nc1ccc([N+](=O)[O-])cc1` [Compound No. 5, 2,3,4-Tri-O-benzyl-6-N-{[p-nitrophenyl]aminocarbonylamino}-N-propyl-D-gluco-δ-lactam], the GI50 in the assay with LOX (melanoma) worked out at 10.4 µM; in assay [1], 33.9 µM; in assay [2] it was 29.6 µM; in assay [3], 14.6 µM; in assay [4] it was 46.9 µM; in assay [5], 11.4 µM.
Take `CCCN1C(=O)[C@H](OCc2ccccc2)[C@@H](OCc2ccccc2)[C@H](OCc2ccccc2)[C@H]1CNC(=O)CN1C[C@H](OCc2ccccc2)[C@@H](OCc2ccccc2)[C@H](OCc2ccccc2)[C@H]1COCc1ccccc1` [Compound No. 61, 2,3,4-Tri-O-benzyl-6-N-{2-[2,3,4,6-tetra-O-benzyl-1,5-dideoxy-1,5-imino-glucitolyl]acetyl}-N-propyl-D-gluco-δ-lactam]: the GI50 in the assay on LOX (melanoma) was above 618 µM; in assay [1] it was above 618 µM; in assay [2] it was 195 µM; in assay [3], above 618 µM; in assay [4], above 618 µM; in assay [5], above 618 µM.
